Test results reported in patent US20240082252A1, “COMPOSITIONS AND METHODS RELATING TO CANCER” (The Penn State Research Foundation, priority 2015, published 2024).

How the values were obtained:
UACC 903 melanoma cells = experiment: Western blotting of treated cells; assay type: cell-based, human; conditions: 1, 3 or 10 μM AZD5363, FIG. 5C; for phosphorylated CDK1 levels: 1 μM MK1775
Method: Cell lysates were collected 48-96 hours after siRNA transfection or drug treatment by washing plates with PBS followed by addition of RIPA lysis buffer containing Halt Protease & Phosphatase Inhibitor Cocktail (Thermo Scientific, Rockford, IL, USA). Lysates were centrifuged (10,000×g) for 10 minutes at 4° C. to remove cell debris. Protein concentration was measured using the bicinchoninic acid assay kit (Thermo Scientific, Rockford, IL, USA). 25 μg of respective lysates were loaded onto 4-12% Bis-Tris NuPAGE gels (Life Technologies, Grand Island, NY) and run in an XCell SureLock Mini-Cell gel apparatus (Life Technologies, Grand Island, NY), transferred to polyvinylidene difluoride membranes (PVDF) (Pall Corporation, Port Washington, NY), probed with respective primary antibody followed by horseradish peroxidase-conjugated secondary antibody, and exposed using ECL Western Blotting Substrate (Thermo Scientific, Rockford, IL, USA) or Supersignal West Femto Chemiluminescent Substrate (Thermo Scientific, Rockford, IL, USA). Primary antibodies used: p21 (sc-756), p27 (sc-528), PLK1 (sc-17783), p53 (sc-6243) and ERK2 (sc-1647) from Santa Cruz Biotechnology (Dallas, TX), pAKT (S473 in AKT1, 5474 in AKT2 and 5472 in AKT3, #9271), AKT3 (#3788), Total AKT (#4685), pWEE1 (#4910), WEE1 (#4936), p-CDC2 (Y15) (#9111), p-CDC2 ([…]) (#9114), CDC2 (#9112) CHK1 (#2345), pCHK1 (#2344), pRB ([…]/811) (#9308), pRB ([…]) (#9301), pRB ([…]) (#9307), RB (#9309), FOXM1 (#5436), p-Histone H2AX (S139) (#2577) and Cleaved PARP (#9541) from Cell Signaling (Danvers, MA). Secondary antibodies goat anti-rabbit IgG-HRP (sc-2004) and goat anti-mouse IgG-HRP (sc-2005) were purchased from Santa Cruz Biotechnology, Dallas, TX.

UACC 903 cells [1] = experiment: RNA sequencing, differentially expressed genes; assay type: cell-based, human; conditions: 24 hours after treatment; intensity difference test p<0.05
Text: Twenty-four hours following treatment with tested agents, total RNA was extracted from UACC 903 cells using mirVana RNA isolation kit (Life Technologies, Grand Island, NY). Next, using SureSelect Strand Specific RNA Library Preparation kit (Agilent) cDNA libraries were constructed, polyA RNA was purified with oligo (dT) beads and then extracted RNA was processed through fragmentation, reverse transcription, end repair, 3′-end adenylation, adaptor ligation, PCR amplification and SPRI bead purification (Beckman Coulter). For multiplexed high-throughput sequencing, the unique barcode sequences were incorporated. Libraries were then denatured using the Illumina protocol, diluted with pre-chilled hybridization buffer and loaded onto TruSeq SR v3 flow cells on an Illumina HiSeq 2500 (50 cycles, single-read). Sequencing reads were extracted by using Illumina CASAVA pipeline Version 1.8 and aligned to the human reference genome (hg38) using Tophat (version 2.0.9) as described in detail in Trapnell et al, Bioinformatics 2009; 25(9): 1105-11. SeqMonk (version 0.32.0) was used for the identification of differentially expressed genes. Following RNA-Seq quantitation, 75% percentile normalization was performed and significant alterations were determined via intensity difference test with Benjamini and Hochberg multiple testing correction (p-value <0.05). […]

[2] = tested on: UACC 903 human melanoma tumors; experiment: UACC 903 melanoma xenograft, oral drug treatment; assay type: in vivo, athymic-Foxn1^nu nude mice; conditions: MK1775 50 mg/kg, AZD5363 150 mg/kg, oral daily for 18 days; vs vehicle
Method: Tumor kinetics studies were undertaken in athymic-Foxn1^nu nude mice (Harlan Laboratories, Indianapolis, IN, USA). In genetic knockdown models, siRNA targeting AKT3 and WEE1 alone or in combination was nucleofected into 1×10^6 UACC 903 or 1205 Lu cells as described above. Cells transfected with scrambled siRNA were used as a control. After plating and allowing the cells to recover for 48 hours, 1×10^6 cells were aliquoted in 0.2 ml of 10% FBS-DMEM and then injected subcutaneously above both the left and right rib cages of 4-6 week old female mice (3-4 mice/group). Dimensions of developing tumors were measured on alternate days, using calipers to estimate size by multiplying length, width and depth in mm^3. For pharmacological synergy studies, 1×10^6 UACC 903 cells were injected subcutaneously above both the left and right rib cages of 4-6 week old female mice. […] Drugs were prepared in 0.5% methylcellulose, 0.5% Tween 80, 5% DMSO and 200 uL administered per oral treatment.
At the end of the study, blood samples were collected from each mouse, serum was separated and levels of various toxicity markers were analyzed. All of the measured biomarkers in samples collected from mice were within the normal range which excludes any toxicity caused by these drugs. […]

[3] = tested on: 1205 Lu melanoma xenografts; experiment: 1205 Lu melanoma xenograft, oral drug treatment; assay type: in vivo, Athymic-Foxnlnu nude mice; conditions: for reduced growth of 1205 Lu xenograft / tumor development: AZD5363 150 mg/kg, MK1775 50 mg/kg, oral daily for 18 days, vs control, FIG. 4C; for reduced growth of 1205 Lu xenograft tumors: b.i.d.: AZD5363 130 mg/kg 4 days on/3 off, MK1775 30 mg/kg 3 days on/4 off, consecutive dosing in combination, 18 days, FIG. 4E
Method: 1205 Lu melanoma xenograft tumors were established by subcutaneous injection of 1×10^6 1205 Lu cells injected above both left and right rib cages of 4-6 week-old female Athymic-Foxnlnu nude mice (Harlan Sprague Dawley). Six days later, when a fully vascularized tumor had formed, mice were randomly divided into treatment groups described below. Body weight in grams and dimensions of developing tumors in mm^3 were measured on alternate days (1-6). Drugs were prepared in 0.5% methylcellulose, 0.5% Tween 80, 5% DMSO and […] administered per oral treatment.
Group 1 (vehicle control, 0.5% methylcellulose, 0.5% Tween 80, 5% DMSO) daily for 18 days;
Group 3 (MK1775, 50 mg/kg) daily for 18 days; and
Group 5 (vehicle control, 0.5% methylcellulose, 0.5% Tween 80, 5% DMSO) b.i.d. (twice a day) for 18 days;
Group 7, (MK1775, 30 mg/kg b.i.d. for 3 days on, 4 days off) for 18 days; and […]

[4] = serum analysis of toxicity markers at end of study; assay type: in vivo, mice; conditions: for CREA / BUN: kidney; for CREA: reference levels 0.1-0.3; for BUN: reference levels 18-33.7; for TBIL / ALB / SGPT (ALT) / ALKP: liver function; for TBIL: reference levels 0.1-0.9; for ALB: reference levels 2.5-4.8; for SGPT (ALT): reference levels 33-132, UACC 903 xenograft mice, oral daily; for ALKP: reference levels 62-209; for GLOB: no reference levels printed; for TP / CHOL / GLU: others; for TP: reference levels 3.6-6.6; for CHOL: reference levels 92-157; for GLU: reference levels 198-247; for AMYL: pancreas, reference levels 1691-3615
Method: At the end of the study, blood samples were collected from each mouse, serum was separated and levels of various toxicity markers were analyzed. All of the measured biomarkers in samples collected from mice were within the normal range which excludes any toxicity caused by these drugs. Furthermore, visceral organs such as, heart, lungs, liver, intestine, spleen and kidney from each mouse were also collected, fixed in formalin and embedded in paraffin to assess any toxicity associated abnormality in cell morphology and tissue structure following hematoxylin and eosin staining.

C8161.C19 cells = experiment: cytotoxicity of pharmacological agents alone or combined (CellTiter 96), 48 hours; assay type: cell-based; conditions: for cell viability, single agents: 0.15 μM MK1775, 0.31 to 2.5 μM GDC0068, 1.25 to 10 μM AZD5363, FIG. 3E, 3G
Method: (§1) Cytotoxicity of these agents alone or in combination in melanoma cells was measured by plating 2.5 to 5×10^3 cells into 96-well plates followed by growth for 24 to 48 hours in a humidified 37° C. cell culture incubator. […] Control cells were treated with vehicle (DMSO) alone. Cytotoxicity was measured using the CellTiter 96 Aqueous Non-Radioactive Cell Proliferation Assay (Promega). The combined effects of MK1775 and GDC0068 were quantified using CalcuSyn software.

UACC 903 cells [5] = experiment: as above; assay type: cell-based; conditions: Homo sapiens, UACC-903, read-out: reduced cell viability
Method: as §1

Compound	phosphorylated CDK1 levels (UACC 903 melanoma cells)	number of significantly deregulated genes (UACC 903 cells [1]) [genes]	decrease in tumor size / tumor development [2]	reduced growth of 1205 Lu xenograft / tumor development [3] [%]	reduced growth of 1205 Lu xenograft tumors [3] [%]	CREA [4]	BUN [4] [mg/dL]	TBIL [4] [mg/dL]	ALB [4] [mg/dL]	SGPT (ALT) [4] [u/L]	ALKP [4] [u/L]	GLOB [4] [g/dL]	TP [4] [g/dL]	CHOL [4] [mg/dL]	GLU [4] [mg/dL]	AMYL [4] [U/L]	cell viability, single agents (C8161.C19 cells)	relative single-agent activity (C8161.C19 cells; C8161.C19 cell line)	cytotoxicity at 0.63 µM (UACC 903 cells [5]) [%]	phosphorylated PRAS40 levels (UACC 903 melanoma cells)
C=CCn1c(=O)c2cnc(Nc3ccc(N4CCN(C)CC4)cc3)nc2n1-c1cccc(C(C)(C)O)n1 [MK1775, 2-allyl-1-(6-(2-hydroxypropan-2-yl)pyridin-2-yl)-6-((4-(4-methylpiperazin-1-yl)phenyl)amino)-1H-pyrazolo[3,4-d]pyrimidin-3(2H)-one]	decreased phosphorylated CDK1 levels	94	ineffective	~50	~30	0.1 ± 0 mg/dL	25.3 ± 1.9	0.6 ± 0	2.6 ± 0.1	55 ± 10.1	75 ± 5.6	2.6 ± 0	5.2 ± 0.1	142.5 ± 4.6	237.5 ± 31.4	2251.8 ± 50.2	reduced cell viability	significantly more effective	35 to 40	
NC1(C(=O)N[C@@H](CCO)c2ccc(Cl)cc2)CCN(c2ncnc3[nH]ccc23)CC1 [AZD5363]	reduced the phosphorylation of CDK1 in a dose-dependent manner	64	36%	~50	~30	0.1 ± 0^ mg/dL	25.8 ± 2.2	0.5 ± 0.1	2500	41.3 ± 7.4	86.3 ± 7.5	2.6 ± 0.1	5.1 ± 0.1	113.5 ± 7.6	214 ± 30.6	1891 ± 129.7	reduced cell viability			dose-dependently decreased phosphorylated PRAS40 levels
CC(C)NC[C@@H](C(=O)N1CCN(c2ncnc3c2[C@H](C)C[C@H]3O)CC1)c1ccc(Cl)cc1 [GDC0068, ipatasertib]																	reduced cell viability			
